Data: patent US10669272B2, “Substituted naphthyridinone compounds useful as T cell activators” (BRISTOL-MYERS SQUIBB COMPANY, priority 2018, dated 2020)
Read-outs that look alike come from different tables or passages of the source.

Tests used:
[1] = tested on: Human venous whole blood; experiment: Human whole blood IFN-γ assay; format: cell-based; conditions: human whole blood, read-out: INFg Whole Blood Normalized Agonist EC50;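 further: blood from healthy donors exposed to compound for 1 h before stimulation with anti-CD3 and anti-CD28 at 1 µg/mL each, IFN-γ quantified in supernatant by AlphaLISA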
Description: Human Whole Blood IFN-γ Assay
Human venous whole blood (22.5 μL per well), obtained from healthy donors, was pre-treated with compounds for one hour at 37° C. in a humidified 95% air/5% CO2 incubator. The blood was stimulated with 2.5 μL anti-human CD3 and anti-CD28 mAb at a final concentration of 1 μg/mL each for 24 hours at 37° C. IFN-γ in the supernatants was measured using AlphLISA kit (Cat # AL217).

[2] = target: T1, human DGKζ (Homo sapiens, UniProt Q13574); experiment: DGKζ LIPGLO assay (extruded liposome substrate), in vitro DGK inhibition; format: biochemical; conditions: read-out: DGKz LIPGLO IC50
T1 construct: TVMV protease cleavage site (C); Hexa-His (C); made in house; host or cells: Sf9 insect cells (baculovirus, Bac-to-Bac)
T1 sequence (Q13574 with tags, fused parts or gaps isoform Q13574-4): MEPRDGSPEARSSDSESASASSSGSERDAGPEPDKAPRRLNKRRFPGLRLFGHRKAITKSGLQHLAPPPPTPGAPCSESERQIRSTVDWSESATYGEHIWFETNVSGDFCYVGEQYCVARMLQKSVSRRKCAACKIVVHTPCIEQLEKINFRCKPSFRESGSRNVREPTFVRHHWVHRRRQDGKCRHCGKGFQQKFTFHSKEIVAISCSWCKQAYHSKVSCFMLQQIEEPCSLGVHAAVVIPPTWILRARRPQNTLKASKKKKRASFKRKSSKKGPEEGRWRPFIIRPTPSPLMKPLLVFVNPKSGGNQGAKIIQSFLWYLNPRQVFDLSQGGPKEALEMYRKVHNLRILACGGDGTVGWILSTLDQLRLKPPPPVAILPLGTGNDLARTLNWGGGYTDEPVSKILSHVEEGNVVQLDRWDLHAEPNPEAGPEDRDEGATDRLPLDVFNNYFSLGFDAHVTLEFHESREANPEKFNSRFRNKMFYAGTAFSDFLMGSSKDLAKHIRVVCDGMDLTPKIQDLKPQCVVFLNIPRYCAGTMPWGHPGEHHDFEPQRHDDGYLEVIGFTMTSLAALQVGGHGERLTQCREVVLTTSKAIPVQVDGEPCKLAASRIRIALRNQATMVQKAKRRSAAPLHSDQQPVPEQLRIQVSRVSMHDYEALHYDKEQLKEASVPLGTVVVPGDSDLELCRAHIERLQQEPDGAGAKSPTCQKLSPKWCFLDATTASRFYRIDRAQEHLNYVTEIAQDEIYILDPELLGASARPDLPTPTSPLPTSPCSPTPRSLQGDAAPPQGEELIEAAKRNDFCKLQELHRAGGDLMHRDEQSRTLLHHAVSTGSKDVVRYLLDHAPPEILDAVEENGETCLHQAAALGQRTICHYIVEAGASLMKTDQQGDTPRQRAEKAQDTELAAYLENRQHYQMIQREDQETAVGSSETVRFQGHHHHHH

[3] = target: T2, human DGKα (Homo sapiens, UniProt P23743); experiment: DGKα LIPGLO assay (extruded liposome substrate), in vitro DGK inhibition; format: biochemical; conditions: read-out: DGKa LIPGLO IC50
T2 construct: TVMV protease cleavage site (C); Hexa-His (C); made in house; host or cells: Sf9 insect cells (baculovirus, Bac-to-Bac)
T2 sequence (P23743 with tags, fused parts or gaps): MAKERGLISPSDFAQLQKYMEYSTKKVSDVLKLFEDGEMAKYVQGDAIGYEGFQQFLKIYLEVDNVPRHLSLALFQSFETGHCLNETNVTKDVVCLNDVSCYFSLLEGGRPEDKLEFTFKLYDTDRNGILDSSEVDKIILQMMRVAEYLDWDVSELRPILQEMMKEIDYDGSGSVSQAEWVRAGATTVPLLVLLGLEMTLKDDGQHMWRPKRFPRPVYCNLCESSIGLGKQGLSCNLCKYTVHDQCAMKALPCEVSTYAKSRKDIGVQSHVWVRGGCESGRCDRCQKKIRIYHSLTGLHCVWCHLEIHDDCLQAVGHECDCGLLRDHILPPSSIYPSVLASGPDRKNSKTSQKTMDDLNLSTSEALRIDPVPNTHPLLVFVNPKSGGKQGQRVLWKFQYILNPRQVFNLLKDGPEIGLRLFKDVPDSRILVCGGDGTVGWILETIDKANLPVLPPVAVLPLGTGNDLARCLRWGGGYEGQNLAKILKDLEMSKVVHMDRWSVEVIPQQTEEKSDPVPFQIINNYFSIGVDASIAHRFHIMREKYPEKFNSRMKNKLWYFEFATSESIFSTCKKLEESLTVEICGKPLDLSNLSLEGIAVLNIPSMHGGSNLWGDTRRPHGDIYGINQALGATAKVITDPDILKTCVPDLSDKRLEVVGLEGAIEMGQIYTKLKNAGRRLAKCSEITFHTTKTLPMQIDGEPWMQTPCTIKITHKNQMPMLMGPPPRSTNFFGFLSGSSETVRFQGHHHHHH

[4] = normalized to 3 μM reference compound with anti-CD3 plus anti-CD28 as 100% activation
[5] = Homo sapiens, 24 h, normalized to 3 μM reference compound with anti-CD3 plus anti-CD28 as 100% activation
[6] = anti-CD3 plus anti-CD28, 24 hours, 3 μM reference compound = 100% activation
[7] = Homo sapiens, 24 h, anti-CD3 plus anti-CD28, 24 hours, 3 μM reference compound = 100% activation

Structure (SMILES) | EC50 [1, 4] [µM] | IC50 ([2]; liposome (LIPGLO) assay) [µM] | IC50 ([3]; liposome (LIPGLO) assay) [µM] | EC50 [1, 5] [µM] | EC50 [1, 6] [µM] | IC50 ([2]; DGKζ liposome (LIPGLO) assay) [µM] | IC50 ([3]; DGKα liposome (LIPGLO) assay) [µM] | EC50 [1, 7] [µM]
C[C@@H]1CN(c2cc(=O)n(C)c3ccc(C#N)nc23)[C@@H](C)CN1C(c1ccccc1)c1ccc(Cl)cc1 (single isomer, unassigned) [Example 671] | 1.2 | 3.2 | 3.3 |  |  |  |  | 
C[C@@H]1CN(c2cc(=O)n(C)c3ccc(C#N)nc23)[C@@H](C)CN1C(c1ccc(F)cc1)C(C)(C)O (single isomer, unassigned) [Example 1309] | 7.9 | 13 | 4.6 |  |  |  |  | 
C[C@H]1CN(C(c2ccc(F)cc2)c2ccc(F)cc2)[C@H](CN2CC(O)C2)CN1c1cc(=O)n(C)c2ccc(C#N)nc12 [Example 1168] |  | 60 | 83 | 20 |  |  |  | 
C[C@@H]1CN(c2cc(=O)n(C)c3ccc(C#N)nc23)[C@@H](C)CN1C(c1ccc(OC(F)(F)F)cc1)c1ccc(F)cn1 (single isomer, unassigned) [Example 468] | 1.3 | 1.6 | 0.14 |  |  |  |  | 
COc1ccc(C(C)N2C[C@H](C)N(c3cc(=O)n(C)c4ccc(C#N)nc34)C[C@H]2C)cc1C(F)(F)F (stereo partly drawn) [Example 1250] | 18 | 1.7 | 20 |  |  |  |  | 
C[C@@H]1CN(c2c(C#N)c(=O)n(C)c3ccc(C#N)nc23)CCN1C(c1ccc(F)cc1)c1cccc(C(F)(F)F)n1 (single isomer, unassigned) [Example 921] |  |  |  |  | 1.5 | 3.1 | 23 | 
C[C@@H]1CN(c2c(C#N)c(=O)n(C)c3ccc(C#N)nc23)[C@@H](C)CN1C(c1ccc(F)cc1)c1ccc(F)cn1 (stereo partly drawn) [Example 828] |  |  |  |  | 2.7 | 16 | 4.2 | 
C[C@@H]1CN(c2c(C#N)c(=O)n(C)c3ccc(C#N)nc23)CCN1C(c1ccc(F)cc1)c1cncn1C (single isomer, unassigned) [Example 1018] |  |  |  |  |  | 74 | 81 | 20
CC(c1ccc(C2(C#N)CC2)cc1)N1C[C@H](C)N(c2cc(=O)n(C)c3ccc(C#N)nc23)C[C@H]1C (stereo partly drawn) [Example 1254] | 1.8 | 0.34 | 1.9 |  |  |  |  | 
CC(c1ccc(C(F)(F)F)cc1)N1C[C@@H](C)N(c2cc(=O)n(C)c3ccc(C#N)nc23)C[C@@H]1C (single isomer, unassigned) [Example 345] | 6.8 | 33 | 4 |  |  |  |  | 
CC(c1ccc(F)cc1)N1CCN(c2c(C#N)c(=O)n(C)c3ccc(C#N)nc23)C[C@H]1C (single isomer, unassigned) [Example 959] |  |  |  |  | 5.4 | 5.9 | 2.4 | 
C[C@@H]1CN(c2cc(=O)n(C)c3ccc(C#N)nc23)[C@@H](C)CN1Cc1cc(-c2ccccc2C#N)no1 [Example 1427] |  | 5.2 | 21 | 20 |  |  |  | 
C[C@@H]1CN(c2cc(=O)n(C)c3ccc(C#N)nc23)[C@@H](C)CN1C(c1ccc(Cl)cc1)c1ccc(F)c2c1OC(C)(C)C2 (single isomer, unassigned) [Example 458] |  | 0.11 | 1.1 | 0.51 |  |  |  | 
CC(c1cccc2ncccc12)N1C[C@H](C)N(c2cc(=O)n(C)c3ccc(C#N)nc23)C[C@H]1C (single isomer, unassigned) [Example 639] | 20 | 18 | 98 |  |  |  |  | 
CC(c1ccc(C2(C#N)CC2)cc1F)N1C[C@H](C)N(c2cc(=O)n(C)c3ccc(C#N)nc23)C[C@H]1C (single isomer, unassigned) [Example 1252] |  | 3.1 | 5.7 | 7.7 |  |  |  | 
C[C@@H]1CN(c2cc(=O)n(C)c3ccc(C#N)nc23)[C@@H](C)CN1C(c1ccc(F)cc1)c1ccnc(C(C)(C)C)n1 (single isomer, unassigned) [Example 408] |  | 0.8 | 7.5 | 0.8 |  |  |  | 
Cc1cccc(C(C)N2CCN(c3c(C#N)c(=O)n(C)c4ccc(C#N)nc34)C[C@H]2C)n1 (stereo partly drawn) [Example 967] |  |  |  |  | 18 | 51 | 2.8 | 
CC(c1ccccc1OC(F)(F)F)N1C[C@H](C)N(c2cc(=O)n(C)c3ccc(C#N)nc23)C[C@H]1C (single isomer, unassigned) [Example 1212] |  | 0.11 | 23 | 11 |  |  |  | 
Cc1cccc(CN2CCN(c3c(C#N)c(=O)n(C)c4ccc(C#N)nc34)C[C@H]2C)n1 [Example 988] |  |  |  |  |  | 5.3 | 2.8 | 20
CC(c1cccc(OC(F)(F)F)c1)N1C[C@H](C)N(c2cc(=O)n(C)c3ccc(C#N)nc23)C[C@H]1C (single isomer, unassigned) [Example 1268] |  | 1 | 2.1 | 5.2 |  |  |  | 

Structure (SMILES) | EC50 [1, 4] [µM] | IC50 ([2]; liposome (LIPGLO) assay) [µM] | IC50 ([3]; liposome (LIPGLO) assay) [µM] | EC50 [1, 5] [µM] | EC50 [1, 6] [µM] | IC50 ([2]; DGKζ liposome (LIPGLO) assay) [µM] | IC50 ([3]; DGKα liposome (LIPGLO) assay) [µM] | EC50 [1, 7] [µM]
CC(c1cc(C2CC2)on1)N1C[C@H](C)N(c2cc(=O)n(C)c3ccc(C#N)nc23)C[C@H]1C (single isomer, unassigned) [Example 1281] | 1.6 | 1.1 | 0.49 |  |  |  |  | 
CCC(c1ccc(OCC2CC2)cc1)N1C[C@H](C)N(c2cc(=O)n(C)c3ccc(C#N)nc23)C[C@H]1C (single isomer, unassigned) [Example 1440] |  | 1.1 | 1.6 | 2.1 |  |  |  | 
CC[C@@H]1CN(c2cc(=O)n(C)c3ccc(C#N)nc23)[C@@H](C)CN1C(C)c1ccc(OC)cc1 (single isomer, unassigned) [Example 483] | 4.3 | 3.9 | 3.3 |  |  |  |  | 
CC(C)Oc1ccc(C(c2cccc(F)c2)N2C[C@H](C)N(c3cc(=O)n(C)c4ccc(C#N)nc34)C[C@H]2C)nc1 (stereo partly drawn) [Example 690] |  | 0.39 | 1.5 | 3.5 |  |  |  | 
Cc1oncc1CN1C[C@H](C)N(c2cc(=O)n(C)c3ccc(C#N)nc23)C[C@H]1C [Example 1431] |  | 12 | 59 | 13 |  |  |  | 
Cc1ccc(C(c2ccc(F)cc2Cl)N2C[C@H](C)N(c3c(C#N)c(=O)n(C)c4ccc(C#N)nc34)C[C@H]2C)nc1 (stereo partly drawn) [Example 832] |  |  |  |  | 1.8 | 2.7 | 19 | 
Cc1ccc(C(c2cccc(Cl)c2)N2CCN(c3c(C#N)c(=O)n(C)c4ccc(C#N)nc34)C[C@H]2C)nc1 (single isomer, unassigned) [Example 928] |  |  |  |  |  | 1.5 | 2.4 | 1.7
Cc1cccc(C(c2ccc(F)cc2)N2CCN(c3c(C#N)c(=O)n(C)c4ccc(C#N)nc34)C[C@H]2C)c1 (stereo partly drawn) [Example 917] |  |  |  |  | 0.85 | 0.7 | 6.1 | 
C[C@@H]1CN(c2c(C#N)c(=O)n(C)c3ccc(C#N)nc23)CCN1Cc1ccc(C(C)(C)C)cc1 [Example 1013] |  |  |  |  |  | 47 | 7.3 | 1.4
CCn1cc(F)c2c(CN3C[C@H](C)N(c4cc(=O)n(C)c5ccc(C#N)nc45)C[C@H]3C)cccc21 [Example 596] |  | 0.58 | 8.9 | 15 |  |  |  | 
C[C@@H]1CN(c2c(C#N)c(=O)n(C)c3ccc(C#N)nc23)CCN1Cc1ccc(Cl)cc1 [Example 1011] |  |  |  |  |  | 8.3 | 1.2 | 20
CC(c1ccc(OC(F)(F)F)cc1)N1C[C@H](C)N(c2cc(=O)n(C)c3ccc(C#N)nc23)C[C@H]1CN1CCOCC1 (single isomer, unassigned) [Example 1415] | 6.9 | 1.8 | 19 |  |  |  |  | 
CCc1ccc(C(c2ccc(F)cc2)N2CCN(c3c(C#N)c(=O)n(C)c4ccc(C#N)nc34)C[C@H]2C)cc1 (stereo partly drawn) [Example 884] |  |  |  |  |  | 2.4 | 4.6 | 2.2
C[C@@H]1CN(c2c(C#N)c(=O)n(C)c3ccc(C#N)nc23)[C@@H](C)CN1C(c1ccc(Cl)cc1)c1ccc(Cl)cc1 [Example 805] |  |  |  |  |  | 1.7 | 11 | 9.8
CC(c1ccc(OC(F)(F)F)cc1F)N1C[C@H](C)N(c2cc(=O)n(C)c3ccc(C#N)nc23)C[C@H]1C (stereo partly drawn) [Example 437, 8-((2S,5R)-4-(1-(2-fluoro-4-(trifluoromethoxy)phenyl)ethyl)-2,5-dimethylpiperazin-1-yl)-5-methyl-6-oxo-5,6-dihydro-1,5-naphthyridine-2-carbonitrile] |  | 0.67 | 0.4 | 0.54 |  |  |  | 
CC(c1ccc(OC(F)(F)F)cc1F)N1C[C@H](C)N(c2cc(=O)n(C)c3ccc(C#N)nc23)C[C@H]1C (single isomer, unassigned) [Example 442] | 7.5 | 1.8 | 1.4 |  |  |  |  | 
C[C@@H]1CN(c2cc(=O)n(C)c3ccc(C#N)nc23)[C@@H](C)CN1C(c1ccc(F)cc1)c1cccc(N2CCOCC2)c1 (single isomer, unassigned) [Example 672] | 9.5 | 1.7 | 92 |  |  |  |  | 
C[C@@H]1CN(c2c(C#N)c(=O)n(C)c3ccc(C#N)nc23)CCN1C(c1ccc(Cl)cc1)c1ccc2c(c1)OC(F)(F)O2 (single isomer, unassigned) [Example 942] |  |  |  |  | 20 | 2.8 | 26 | 
CC[C@H]1CN(C(c2ccc(Cl)cc2)c2ccc(F)cn2)[C@H](C)CN1c1cc(=O)n(C)c2ccc(C#N)nc12 (single isomer, unassigned) [Example 1130] | 0.28 | 0.43 | 0.17 |  |  |  |  | 
